According to the supplement of paper PMC10307832:

Assays:
[1] = compound: CC(=O)Nc1cccc(-n2c(=O)n(C3CC3)c(=O)c3c(Nc4ccc(I)cc4F)n(C)c(=O)c(C)c32)c1 [Trametinib]; experiment: relative viability (nuclei count vs DMSO), 5 days (fraction); higher = more cells survive
In short: (§1)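 Only plates meeting two conditions passed: control CV below 25% and at least one doubling. Lung cancer cell lines, kept overnight at 37 °C in 1536-well plates, were pinned with five library-drug doses (not always all listed) √10 apart on vehicle-anchored plates and grown 5 days without medium change. A one-step fix, permeabilisation and Hoechst stain preceded 4× imaging and MetaXpress nuclear counting. Viability equals treated-well nuclei divided by vehicle-well nuclei, as the median over plates.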

[2] = compound: CN1C=C(C2=CC=CC=C21)/C=C\3/C4=C(C=CC=N4)NC3=O; experiment: as above
In short: as §1

## NCI-H1944
[1]; 0.0025 µM
  relative viability: 0.989
[1]; 0.007906 µM
  relative viability: 0.672
[1]; 0.02 µM, anchor plate
  relative viability: 0.427
[1]; 0.025 µM
  relative viability: 0.558
[1]; 0.07906 µM
  relative viability: 0.487
[1]; 0.25 µM
  relative viability: 0.363
[2]; 0.02 µM
  relative viability: 0.903
[2]; 0.06325 µM
  relative viability: 0.948
[2]; 0.6325 µM
  relative viability: 0.989
[2]; 2 µM
  relative viability: 0.936

## HCC-827
[1]; 0.0025 µM
  relative viability: 0.999
[1]; 0.007906 µM
  relative viability: 0.958
[1]; 0.02 µM, anchor plate
  relative viability: 0.508
[1]; 0.025 µM
  relative viability: 0.92
[1]; 0.07906 µM
  relative viability: 0.738
[1]; 0.25 µM
  relative viability: 0.609
[2]; 0.02 µM
  relative viability: 0.94
[2]; 0.06325 µM
  relative viability: 0.978
[2]; 0.6325 µM
  relative viability: 1.11
[2]; 2 µM
  relative viability: 1.06

## COR-L23
[1]; 0.0025 µM
  relative viability: 0.979
[1]; 0.007906 µM
  relative viability: 0.995
[1]; 0.02 µM, anchor plate
  relative viability: 0.593
[1]; 0.025 µM
  relative viability: 0.871
[1]; 0.07906 µM
  relative viability: 0.849
[1]; 0.25 µM
  relative viability: 0.476
[2]; 0.02 µM
  relative viability: 0.992
[2]; 0.06325 µM
  relative viability: 0.994
[2]; 0.2 µM
  relative viability: 1.09
[2]; 0.6325 µM
  relative viability: 1.12
[2]; 2 µM
  relative viability: 1

## NCI-H3122
[1]; 0.0025 µM
  relative viability: 0.909
[1]; 0.007906 µM
  relative viability: 0.701
[1]; 0.02 µM, anchor plate
  relative viability: 0.231
[1]; 0.025 µM
  relative viability: 0.465
[1]; 0.07906 µM
  relative viability: 0.361
[1]; 0.25 µM
  relative viability: 0.281
[2]; 0.02 µM
  relative viability: 0.878
[2]; 0.06325 µM
  relative viability: 0.938
[2]; 0.2 µM
  relative viability: 0.897
[2]; 0.6325 µM
  relative viability: 1.05
[2]; 2 µM
  relative viability: 0.994

## NCI-H2170
[1]; 0.0025 µM
  relative viability: 0.96
[1]; 0.007906 µM
  relative viability: 0.955
[1]; 0.02 µM, anchor plate
  relative viability: 0.94
[1]; 0.07906 µM
  relative viability: 0.929
[1]; 0.25 µM
  relative viability: 0.923
[2]; 0.02 µM
  relative viability: 0.854
[2]; 0.06325 µM
  relative viability: 0.983
[2]; 0.2 µM
  relative viability: 0.833
[2]; 0.6325 µM
  relative viability: 0.839
[2]; 2 µM
  relative viability: 1.07

## NCI-H1793
[1]; 0.0025 µM
  relative viability: 0.59
[1]; 0.007906 µM
  relative viability: 0.611
[1]; 0.02 µM, anchor plate
  relative viability: 0.429
[1]; 0.025 µM
  relative viability: 0.298
[1]; 0.07906 µM
  relative viability: 0.338
[1]; 0.25 µM
  relative viability: 0.254
[2]; 0.02 µM
  relative viability: 1.02
[2]; 0.06325 µM
  relative viability: 1.1
[2]; 0.2 µM
  relative viability: 0.737
[2]; 0.6325 µM
  relative viability: 0.79
[2]; 2 µM
  relative viability: 0.918

## BEN
[1]; 0.0025 µM
  relative viability: 0.953
[1]; 0.007906 µM
  relative viability: 0.96
[1]; 0.02 µM, anchor plate
  relative viability: 1.07
[1]; 0.025 µM
  relative viability: 0.566
[1]; 0.07906 µM
  relative viability: 0.658
[1]; 0.25 µM
  relative viability: 0.814
[2]; 0.02 µM
  relative viability: 0.863
[2]; 0.06325 µM
  relative viability: 0.872
[2]; 0.2 µM
  relative viability: 0.701
[2]; 0.6325 µM
  relative viability: 0.755
[2]; 2 µM
  relative viability: 1.05

## NCI-H1623
[1]; 0.0025 µM
  relative viability: 0.839
[1]; 0.007906 µM
  relative viability: 0.74
[1]; 0.025 µM
  relative viability: 0.552
[1]; 0.07906 µM
  relative viability: 0.569
[1]; 0.25 µM
  relative viability: 0.523
[2]; 0.02 µM
  relative viability: 0.815
[2]; 0.06325 µM
  relative viability: 1.02
[2]; 0.2 µM
  relative viability: 0.735
[2]; 0.6325 µM
  relative viability: 0.85
[2]; 2 µM
  relative viability: 0.912

## NCI-H647
[1]; 0.0025 µM
  relative viability: 0.837
[1]; 0.007906 µM
  relative viability: 0.754
[1]; 0.02 µM, anchor plate
  relative viability: 0.516
[1]; 0.025 µM
  relative viability: 0.588
[1]; 0.07906 µM
  relative viability: 0.554
[1]; 0.25 µM
  relative viability: 0.293
[2]; 0.02 µM
  relative viability: 0.946
[2]; 0.06325 µM
  relative viability: 0.863
[2]; 0.2 µM
  relative viability: 0.656
[2]; 0.6325 µM
  relative viability: 0.784
[2]; 2 µM
  relative viability: 0.827

## PC-14
[1]; 0.0025 µM
  relative viability: 1.03
[1]; 0.007906 µM
  relative viability: 0.953
[1]; 0.02 µM, anchor plate
  relative viability: 0.756
[1]; 0.025 µM
  relative viability: 0.758
[1]; 0.07906 µM
  relative viability: 0.626
[1]; 0.25 µM
  relative viability: 0.226
[2]; 0.02 µM
  relative viability: 0.944
[2]; 0.06325 µM
  relative viability: 0.943
[2]; 0.2 µM
  relative viability: 0.926
[2]; 0.6325 µM
  relative viability: 1.01
[2]; 2 µM
  relative viability: 1.05

## HCC-78
[1]; 0.0025 µM
  relative viability: 0.933
[1]; 0.007906 µM
  relative viability: 0.735
[1]; 0.02 µM, anchor plate
  relative viability: 0.805
[1]; 0.025 µM
  relative viability: 0.678
[1]; 0.07906 µM
  relative viability: 0.573
[1]; 0.25 µM
  relative viability: 0.526
[2]; 0.02 µM
  relative viability: 0.81
[2]; 0.06325 µM
  relative viability: 0.905
[2]; 0.2 µM
  relative viability: 0.731
[2]; 0.6325 µM
  relative viability: 0.803
[2]; 2 µM
  relative viability: 0.889

## NCI-H1666
[1]; 0.0025 µM
  relative viability: 0.972
[1]; 0.007906 µM
  relative viability: 0.931
[1]; 0.02 µM, anchor plate
  relative viability: 0.864
[1]; 0.025 µM
  relative viability: 0.892
[1]; 0.07906 µM
  relative viability: 0.724
[1]; 0.25 µM
  relative viability: 0.617
[2]; 0.02 µM
  relative viability: 1.09
[2]; 0.06325 µM
  relative viability: 0.938
[2]; 0.2 µM
  relative viability: 0.99
[2]; 0.6325 µM
  relative viability: 0.924
[2]; 2 µM
  relative viability: 0.967

## COR-L 105
[1]; 0.0025 µM
  relative viability: 0.835
[1]; 0.007906 µM
  relative viability: 0.786
[1]; 0.02 µM, anchor plate
  relative viability: 0.446
[1]; 0.025 µM
  relative viability: 0.426
[1]; 0.07906 µM
  relative viability: 0.386
[1]; 0.25 µM
  relative viability: 0.426
[2]; 0.02 µM
  relative viability: 0.803
[2]; 0.06325 µM
  relative viability: 0.838
[2]; 0.2 µM
  relative viability: 0.837
[2]; 0.6325 µM
  relative viability: 1.05
[2]; 2 µM
  relative viability: 1.02

## LU99A
[1]; 0.0025 µM
  relative viability: 0.953
[1]; 0.007906 µM
  relative viability: 0.829
[1]; 0.02 µM, anchor plate
  relative viability: 0.53
[1]; 0.025 µM
  relative viability: 0.551
[1]; 0.07906 µM
  relative viability: 0.707
[1]; 0.25 µM
  relative viability: 0.681
[2]; 0.02 µM
  relative viability: 0.983
[2]; 0.06325 µM
  relative viability: 0.845
[2]; 0.2 µM
  relative viability: 0.909
[2]; 0.6325 µM
  relative viability: 0.937
[2]; 2 µM
  relative viability: 0.789

## NCI-H596
[1]; 0.0025 µM
  relative viability: 0.934
[1]; 0.007906 µM
  relative viability: 0.872
[1]; 0.02 µM, anchor plate
  relative viability: 0.787
[1]; 0.025 µM
  relative viability: 0.802
[1]; 0.07906 µM
  relative viability: 0.712
[1]; 0.25 µM
  relative viability: 0.47
[2]; 0.02 µM
  relative viability: 0.985
[2]; 0.06325 µM
  relative viability: 0.998
[2]; 0.2 µM
  relative viability: 0.791
[2]; 0.6325 µM
  relative viability: 0.982
[2]; 2 µM
  relative viability: 0.993

## 201T
[1]; 0.0025 µM
  relative viability: 0.96
[1]; 0.007906 µM
  relative viability: 0.886
[1]; 0.02 µM, anchor plate
  relative viability: 0.721
[1]; 0.025 µM
  relative viability: 0.845
[1]; 0.07906 µM
  relative viability: 0.778
[1]; 0.25 µM
  relative viability: 0.761
[2]; 0.02 µM
  relative viability: 0.951
[2]; 0.06325 µM
  relative viability: 0.979
[2]; 0.2 µM
  relative viability: 0.988
[2]; 0.6325 µM
  relative viability: 0.916
[2]; 2 µM
  relative viability: 0.971

## HCC-15
[1]; 0.0025 µM
  relative viability: 0.795
[1]; 0.007906 µM
  relative viability: 0.541
[1]; 0.02 µM, anchor plate
  relative viability: 0.389
[1]; 0.025 µM
  relative viability: 0.544
[1]; 0.07906 µM
  relative viability: 0.325
[1]; 0.25 µM
  relative viability: 0.28
[2]; 0.02 µM
  relative viability: 0.947
[2]; 0.06325 µM
  relative viability: 0.952
[2]; 0.2 µM
  relative viability: 1.03
[2]; 0.6325 µM
  relative viability: 1.01
[2]; 2 µM
  relative viability: 1.01
